# ChEMBL document CHEMBL1909294, “Translating clinical findings into knowledge in drug safety evaluation--drug induced liver injury prediction system (DILIps)” (PLoS Comput Biol, 2011)
# Experiments:
# Hepatotoxicity [1] = tested on: Hepatotoxicity;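 as to HepSE cholecystitis: Cholecystitis-related hepatic side effect score drawn from the DILIps (drug-induced liver injury prediction) training data set; call rule not given here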;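 as to HepSE cholelithiasis: hepatic side effect score for cholelithiasis, drawn from the DILIps training data for predicting drug-induced liver injury; call rule not given here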;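 as to HepSE cirrhosis: cirrhosis hepatic side effect score taken from the DILIps (drug-induced liver injury prediction) training set; call rule not given here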;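 as to HepSE hepatitis: Hepatitis-related hepatic side effect score taken from the training data of DILIps, a prediction system for drug-induced liver injury; call rule not given here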;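 as to HepSE jaundice: Jaundice-related hepatic side-effect score drawn from the training data of the DILIps (drug-induced liver injury prediction system); call rule not given here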;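 as to HepSE liver function tests abnormal: hepatic side effect score taken from the DILIps (drug-induced liver injury prediction system) training data, here covering abnormal liver function test findings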
# Hepatotoxicity [2] = tested on: Hepatotoxicity; remark: listed apart in the source;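 as to HepSE cholecystitis: Cholecystitis-related hepatic side effect score drawn from the DILIps (drug-induced liver injury prediction) training data set; call rule not given here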;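 as to HepSE cholelithiasis: hepatic side effect score for cholelithiasis, drawn from the DILIps training data for predicting drug-induced liver injury; call rule not given here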;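 as to HepSE cirrhosis: cirrhosis hepatic side effect score taken from the DILIps (drug-induced liver injury prediction) training set; call rule not given here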;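 as to HepSE hepatitis: Hepatitis-related hepatic side effect score taken from the training data of DILIps, a prediction system for drug-induced liver injury; call rule not given here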;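 as to HepSE jaundice: Jaundice-related hepatic side-effect score drawn from the training data of the DILIps (drug-induced liver injury prediction system); call rule not given here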;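 as to HepSE liver function tests abnormal: hepatic side effect score taken from the DILIps (drug-induced liver injury prediction system) training data, here covering abnormal liver function test findings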
# Hepatotoxicity [3] = tested on: Hepatotoxicity; remark: listed apart in the source;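 as to HepSE cholecystitis: Cholecystitis-related hepatic side effect score drawn from the DILIps (drug-induced liver injury prediction) training data set; call rule not given here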;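 as to HepSE cholelithiasis: hepatic side effect score for cholelithiasis, drawn from the DILIps training data for predicting drug-induced liver injury; call rule not given here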;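 as to HepSE cirrhosis: cirrhosis hepatic side effect score taken from the DILIps (drug-induced liver injury prediction) training set; call rule not given here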;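 as to HepSE hepatitis: Hepatitis-related hepatic side effect score taken from the training data of DILIps, a prediction system for drug-induced liver injury; call rule not given here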;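 as to HepSE jaundice: Jaundice-related hepatic side-effect score drawn from the training data of the DILIps (drug-induced liver injury prediction system); call rule not given here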;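 as to HepSE liver function tests abnormal: hepatic side effect score taken from the DILIps (drug-induced liver injury prediction system) training data, here covering abnormal liver function test findings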
# Hepatotoxicity [4] = tested on: Hepatotoxicity; remark: listed apart in the source;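 as to HepSE cholecystitis: Cholecystitis-related hepatic side effect score drawn from the DILIps (drug-induced liver injury prediction) training data set; call rule not given here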;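 as to HepSE cholelithiasis: hepatic side effect score for cholelithiasis, drawn from the DILIps training data for predicting drug-induced liver injury; call rule not given here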;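 as to HepSE cirrhosis: cirrhosis hepatic side effect score taken from the DILIps (drug-induced liver injury prediction) training set; call rule not given here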;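 as to HepSE hepatitis: Hepatitis-related hepatic side effect score taken from the training data of DILIps, a prediction system for drug-induced liver injury; call rule not given here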;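 as to HepSE liver function tests abnormal: hepatic side effect score taken from the DILIps (drug-induced liver injury prediction system) training data, here covering abnormal liver function test findings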
# Hepatotoxicity [5] = tested on: Hepatotoxicity; remark: listed apart in the source
# Hepatotoxicity [6] = tested on: Hepatotoxicity; remark: listed apart in the source
# Hepatotoxicity [7] = tested on: Hepatotoxicity; remark: listed apart in the source
# Hepatotoxicity [8] = tested on: Hepatotoxicity; remark: listed apart in the source
# Hepatotoxicity [9] = tested on: Hepatotoxicity; remark: listed apart in the source
# Hepatotoxicity [10] = tested on: Hepatotoxicity; remark: listed apart in the source
# Hepatotoxicity [11] = tested on: Hepatotoxicity; remark: listed apart in the source
# Hepatotoxicity [12] = tested on: Hepatotoxicity; remark: listed apart in the source
# Hepatotoxicity [13] = tested on: Hepatotoxicity; remark: listed apart in the source
# Hepatotoxicity [14] = tested on: Hepatotoxicity; remark: listed apart in the source
Molecule,HepSE_cholecystitis (Hepatotoxicity [1]),HepSE_hepatitis (Hepatotoxicity [2]),HepSE_cirrhosis (Hepatotoxicity [3]),HepSE_liver function tests abnormal (Hepatotoxicity [4]),HepSE_cholelithiasis (Hepatotoxicity [5]),HepSE_jaundice (Hepatotoxicity [6]),HepSE_hepatic failure (Hepatotoxicity [7]),HepSE_liver fatty (Hepatotoxicity [8]),HepSE_hepatomegaly (Hepatotoxicity [9]),HepSE_Combined Scores (Hepatotoxicity [10]),HepSE_hepatic necrosis (Hepatotoxicity [11]),HepSE_elevated liver function tests (Hepatotoxicity [12]),HepSE_bilirubinemia (Hepatotoxicity [13]),HepSE_liver disease (Hepatotoxicity [14]),other results
CO[C@H]1/C=C/O[C@@]2(C)Oc3c(C)c(O)c4c(c3C2=O)C2=NC3(CCN(CC(C)C)CC3)NC2=C(NC(=O)/C(C)=C\C=C\[C@H](C)[C@H](O)[C@@H](C)[C@@H](O)[C@@H](C)[C@H](OC(C)=O)[C@@H]1C)C4=O [RIFABUTIN],–,–,–,–,–,–,–,–,–,–,–,–,–,–,HepSE_cholecystitis (Hepatotoxicity [1]; Liver): 0; HepSE_hepatitis (Hepatotoxicity [2]; Liver): 1; HepSE_cirrhosis (Hepatotoxicity [3]; Liver): 0; HepSE_liver function tests abnormal (Hepatotoxicity [4]; Liver): 0; HepSE_cholelithiasis (Hepatotoxicity [5]; Liver): 0; HepSE_jaundice (Hepatotoxicity [6]; Liver): 0; HepSE_hepatic failure (Hepatotoxicity [7]; Liver): 0; HepSE_liver fatty (Hepatotoxicity [8]; Liver): 0; HepSE_hepatomegaly (Hepatotoxicity [9]; Liver): 0; HepSE_Combined Scores (Hepatotoxicity [10]; Liver): 1; HepSE_hepatic necrosis (Hepatotoxicity [11]; Liver): 0; HepSE_elevated liver function tests (Hepatotoxicity [12]; Liver): 0; HepSE_bilirubinemia (Hepatotoxicity [13]; Liver): 0; HepSE_liver disease (Hepatotoxicity [14]; Liver): 0
Cc1ccc(C)c(OCCCC(C)(C)C(=O)O)c1 [GEMFIBROZIL],1,0,0,1,1,1,0,0,0,4,0,0,0,0,–
CC1=NS(=O)(=O)c2cc(Cl)ccc2N1 [DIAZOXIDE],0,0,0,0,0,0,0,0,0,0,0,0,0,0,–
OCC(S)CS (configuration not stated) [DIMERCAPROL],–,–,–,–,–,–,–,–,–,–,–,–,–,–,HepSE_cholecystitis (Hepatotoxicity [1]; Liver): 0; HepSE_hepatitis (Hepatotoxicity [2]; Liver): 0; HepSE_cirrhosis (Hepatotoxicity [3]; Liver): 0; HepSE_liver function tests abnormal (Hepatotoxicity [4]; Liver): 0; HepSE_cholelithiasis (Hepatotoxicity [5]; Liver): 0; HepSE_jaundice (Hepatotoxicity [6]; Liver): 0; HepSE_hepatic failure (Hepatotoxicity [7]; Liver): 0; HepSE_liver fatty (Hepatotoxicity [8]; Liver): 0; HepSE_hepatomegaly (Hepatotoxicity [9]; Liver): 0; HepSE_Combined Scores (Hepatotoxicity [10]; Liver): 0; HepSE_hepatic necrosis (Hepatotoxicity [11]; Liver): 0; HepSE_elevated liver function tests (Hepatotoxicity [12]; Liver): 0; HepSE_bilirubinemia (Hepatotoxicity [13]; Liver): 0; HepSE_liver disease (Hepatotoxicity [14]; Liver): 0
CCOC(=O)CC(SP(=S)(OC)OC)C(=O)OCC (configuration not stated) [MALATHION],0,0,0,0,0,0,0,0,0,0,0,0,0,0,–
CCOC(=O)[C@H](CCc1ccccc1)N[C@@H](C)C(=O)N1[C@H](C(=O)O)C[C@@H]2CCC[C@@H]21,0,1,0,0,0,1,1,0,0,4,1,0,0,0,–
Nc1ccc(O)c(C(=O)O)c1 [MESALAMINE],1,1,1,0,1,1,1,0,0,8,1,1,0,0,–
CC1(C)O[C@@H]2C[C@H]3[C@@H]4C[C@H](F)C5=CC(=O)C=C[C@]5(C)[C@H]4[C@@H](O)C[C@]3(C)[C@]2(C(=O)CO)O1 [FLUNISOLIDE],0,0,0,0,0,0,0,0,0,0,0,0,0,0,–
C[C@@H](NCCCc1cccc(C(F)(F)F)c1)c1cccc2ccccc12,0,0,0,0,0,0,0,0,0,0,0,0,0,0,–
CN(C)CCC=C1c2ccccc2C=Cc2ccccc21 [CYCLOBENZAPRINE],–,–,–,–,–,–,–,–,–,–,–,–,–,–,HepSE_cholecystitis (Hepatotoxicity [1]; Liver): 0; HepSE_hepatitis (Hepatotoxicity [2]; Liver): 1; HepSE_cirrhosis (Hepatotoxicity [3]; Liver): 0; HepSE_liver function tests abnormal (Hepatotoxicity [4]; Liver): 0; HepSE_cholelithiasis (Hepatotoxicity [5]; Liver): 0; HepSE_jaundice (Hepatotoxicity [6]; Liver): 1; HepSE_hepatic failure (Hepatotoxicity [7]; Liver): 0; HepSE_liver fatty (Hepatotoxicity [8]; Liver): 0; HepSE_hepatomegaly (Hepatotoxicity [9]; Liver): 0; HepSE_Combined Scores (Hepatotoxicity [10]; Liver): 2; HepSE_hepatic necrosis (Hepatotoxicity [11]; Liver): 0; HepSE_elevated liver function tests (Hepatotoxicity [12]; Liver): 0; HepSE_bilirubinemia (Hepatotoxicity [13]; Liver): 0; HepSE_liver disease (Hepatotoxicity [14]; Liver): 0
CCOc1ccccc1OCCN[C@H](C)Cc1ccc(OC)c(S(N)(=O)=O)c1 [TAMSULOSIN],0,0,0,0,0,0,0,0,0,0,0,0,0,0,–
IVERMECTIN,0,0,0,0,0,0,0,0,0,0,0,0,0,0,–
Cc1c(O)cccc1C(=O)N[C@@H](CSc1ccccc1)[C@H](O)CN1C[C@H]2CCCC[C@H]2C[C@H]1C(=O)NC(C)(C)C,0,1,0,1,0,1,0,0,0,4,0,0,1,0,–
